Columns and labels:
ERα = target: T1, ERα (Homo sapiens, UniProt P03372); assay: Protein degradation assay: ERα in MCF-7 cells via western blot; type: cell-based; details: 6 h; for ERα Protein Degradation 1 nM: 1 nM compound; for ERα Protein Degradation 10 nM: 10 nM compound; for ERα Protein Degradation 100 nM: 100 nM compound
T1 construct: degrading an ERα in MCF-7 cells via a western blot; endogenous in cells; host or cells: MCF-7
T1 sequence (P03372 1-595): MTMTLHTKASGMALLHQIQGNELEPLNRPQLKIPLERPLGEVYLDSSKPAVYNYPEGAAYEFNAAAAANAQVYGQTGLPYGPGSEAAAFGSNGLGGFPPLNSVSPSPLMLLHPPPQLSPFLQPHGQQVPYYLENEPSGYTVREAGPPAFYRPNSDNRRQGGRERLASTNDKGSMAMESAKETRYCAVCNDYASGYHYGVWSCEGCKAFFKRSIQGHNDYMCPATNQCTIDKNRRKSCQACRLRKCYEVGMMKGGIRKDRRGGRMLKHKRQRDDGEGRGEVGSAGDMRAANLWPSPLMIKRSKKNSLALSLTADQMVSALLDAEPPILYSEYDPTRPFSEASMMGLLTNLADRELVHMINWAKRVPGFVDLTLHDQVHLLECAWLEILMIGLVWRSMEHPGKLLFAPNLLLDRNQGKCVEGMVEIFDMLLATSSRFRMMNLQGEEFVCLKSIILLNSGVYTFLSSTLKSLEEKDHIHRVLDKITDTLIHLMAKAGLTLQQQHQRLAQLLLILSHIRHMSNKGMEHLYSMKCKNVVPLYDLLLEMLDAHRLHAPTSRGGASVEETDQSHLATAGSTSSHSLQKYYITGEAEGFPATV
Description: A compound provided herein was assessed for its activity in degrading an ERα in MCF-7 cells via a western blot. The MCF7 cells were cultured at 37° C. in a humidified 5% C02 environment in MEM supplemented with 10% FBS with insulin. The cells were seeded in 12-well plates at a density of 300,000 cells per well in maintenance media. Cells were treated with the compound at predetermined concentrations (e.g., 1 nM, 10 nM, 100 nM, and 1 μM) for 6 h. The cells were then washed in PBS and the whole cells were lysed in a cell lysis buffer and incubated for 15 minutes on ice. Cell debris was removed by high-speed centrifugation and the cleared whole cell lysates were prepared for further analysis by a western blot. The whole cell protein extracts were separated on SDS-polyacrylamide gels, transferred to nitrocellulose membranes, and probed with primary antibodies, including anti-ERα antibody and GAPDH antibody for loading control. The membranes were subsequently washed and probed with secondary antibodies for chemiluminescence, followed by imaging on a BIORAD CHEMIDOC Imaging System. The results are summarized in Table 2, where “A” represents a percentage degradation value of no less than 50%; “B” represents a percentage degradation value of less than 50% and no less than 25%; “C” represents a percentage degradation value of less than 25% and no less than 10%; and “D” represents a percentage degradation value of less than 10%.

MCF7 cells = assay: Cell viability assay ([…]-GLO, 6-day treatment); type: cell-based; details: Homo sapiens, MCF7, 144 h; MCF-7 cells, 6 days, CTG; read-out: Inhibition of Cancerous Cells IC50 MCF-7
Description: A compound provided herein was evaluated for its anticancer activity in MCF7 and T47D cells. MCF7 and T47D cells were cultured at 37° C. in a humidified 5% C02 environment in MEM or RPMI, supplemented with 10% FBS with insulin, respectively. The cells were plated in 384-well microplates at a density of 1,000 cells per well in their respective maintenance media. The cells were treated with the compound by a 10-point dose response curve for 6 days, during which, the medium and compound were refreshed once. After the 6-day treatment, the cell viability was assessed using […]-GLO (CTG) reagent. Luminescence was measured with a microplate reader.

| SMILES | ERα Protein Degradation 1 nM (ERα) | ERα Protein Degradation 10 nM (ERα) | ERα Protein Degradation 100 nM (ERα) | IC50 (MCF7 cells) |
| --- | --- | --- | --- | --- |
| O=C1CCC(N2Cc3sc(C4CCN(CC5CCN(c6ccc([C@@H]7c8ccc(O)cc8CC[C@@H]7c7ccccc7)cc6)CC5)CC4)cc3C2=O)C(=O)N1 (stereo partly drawn) [Compound A10, 3-(2-(1-((1-(4-((1R,2S)-6-hydroxy-2-phenyl-1,2,3,4-tetrahydronaphthalen-1-yl)phenyl)piperidin-4-yl)methyl)piperidin-4-yl)-4-oxo-4,6-dihydro-5H-thieno[2,3-c]pyrrol-5-yl)piperidine-2,6-dione] | D (a percentage degradation value of less than 10%) | D (a percentage degradation value of less than 10%) | D (a percentage degradation value of less than 10%) | 0.82 nM |
| O=C1CCC(N2Cc3sc(C4CCN(CCCCOc5ccc([C@@H]6c7ccc(O)cc7CC[C@@H]6c6ccccc6)cc5)CC4)cc3C2=O)C(=O)N1 (stereo partly drawn) [Compound A20, 3-(2-(1-(4-(4-((1R,2S)-6-Hydroxy-2-phenyl-1,2,3,4-tetrahydronaphthalen-1-yl)-phenoxy)butyl)piperidin-4-yl)-4-oxo-4,6-dihydro-5H-thieno[2,3-c]pyrrol-5-yl)piperidine-2,6-dione] | D (a percentage degradation value of less than 10%) | D (a percentage degradation value of less than 10%) | D (a percentage degradation value of less than 10%) | 0.05 nM |
| Cn1nc([C@@H]2CCC(=O)NC2=O)c2ccc(OCC(=O)N3CCN(CCCCOc4ccc([C@@H]5c6ccc(O)cc6CC[C@@H]5c5ccccc5)cc4)CC3)cc21 [Compound B23, (S)-3-(6-(2-(4-(4-(4-((1R,2S)-6-Hydroxy-2-phenyl-1,2,3,4-tetrahydronaphthalen-1-yl)phenoxy)butyl)piperazin-1-yl)-2-oxoethoxy)-1-methyl-1H-indazol-3-yl)piperidine-2,6-dione] | B (a percentage degradation value of less than 50% and no less than 25%) | B (a percentage degradation value of less than 50% and no less than 25%) | D (a percentage degradation value of less than 10%) | 0.22 nM |
| Cn1nc(C2CCC(=O)NC2=O)c2ccc(OCC(=O)N3CCN(CCCCOc4ccc([C@H]5c6ccc(O)cc6CC[C@H]5c5ccccc5)cc4)CC3)cc21 (stereo partly drawn) [Compound B24, 3-(6-(2-(4-(4-(4-((1S,2R)-6-Hydroxy-2-phenyl-1,2,3,4-tetrahydronaphthalen-1-yl)phenoxy)butyl)piperazin-1-yl)-2-oxoethoxy)-1-methyl-1H-indazol-3-yl)piperidine-2,6-dione] | C (a percentage degradation value of less than 25% and no less than 10%) | C (a percentage degradation value of less than 25% and no less than 10%) | C (a percentage degradation value of less than 25% and no less than 10%) | 66 nM |
| Cn1nc(C2CCC(=O)NC2=O)c2ccc(N3CCN(CC4CCN(c5ccc([C@@H]6c7ccc(O)cc7CC[C@@H]6c6ccccc6)cc5)CC4)CC3)cc21 (stereo partly drawn) [Compound B25, 3-(6-(4-((1-(4-((1R,2S)-6-Hydroxy-2-phenyl-1,2,3,4-tetrahydronaphthalen-1-yl)-phenyl)piperidin-4-yl)methyl)piperazin-1-yl)-1-methyl-1H-indazol-3-yl)piperidine-2,6-dione] | C (a percentage degradation value of less than 25% and no less than 10%) | B (a percentage degradation value of less than 50% and no less than 25%) | D (a percentage degradation value of less than 10%) | 1.2 nM |
| Cn1nc(C2CCC(=O)NC2=O)c2ccc(OCC(=O)N3CCN(CC4CCN(c5ccc([C@@H]6c7ccc(O)cc7CC[C@@H]6c6ccccc6)cc5)CC4)CC3)cc21 (stereo partly drawn) [Compound B27, 3-(6-(2-(4-((1-(4-((1R,2S)-6-Hydroxy-2-phenyl-1,2,3,4-tetrahydronaphthalen-1-yl)phenyl)piperidin-4-yl)methyl)piperazin-1-yl)-2-oxoethoxy)-1-methyl-1H-indazol-3-yl)-piperidine-2,6-dione] | D (a percentage degradation value of less than 10%) | B (a percentage degradation value of less than 50% and no less than 25%) | D (a percentage degradation value of less than 10%) | 0.99 nM |
| O=C1CCC(c2ccc(OCC(=O)N3CCN(CCCCOc4ccc([C@H]5c6ccc(O)cc6CC[C@H]5c5ccccc5)cc4)CC3)cc2)C(=O)N1 (stereo partly drawn) [Compound B44, 3-(4-(2-(4-(4-(4-((1S,2R)-6-Hydroxy-2-phenyl-1,2,3,4-tetrahydronaphthalen-1-yl)phenoxy)butyl)piperazin-1-yl)-2-oxoethoxy)phenyl)piperidine-2,6-dione] | B (a percentage degradation value of less than 50% and no less than 25%) | C (a percentage degradation value of less than 25% and no less than 10%) | C (a percentage degradation value of less than 25% and no less than 10%) | 107 nM |
| O=C1CCN(c2ccc(OCC(=O)N3CCN(CCCCOc4ccc([C@H]5c6ccc(O)cc6CC[C@H]5c5ccccc5)cc4)CC3)cc2)C(=O)N1 [Compound B45, 1-(4-(2-(4-(4-(4-((1S,2R)-6-Hydroxy-2-phenyl-1,2,3,4-tetrahydronaphthalen-1-yl)phenoxy)butyl)piperazin-1-yl)-2-oxoethoxy)phenyl)dihydropyrimidine-2,4(1H,3H)-dione] | C (a percentage degradation value of less than 25% and no less than 10%) | C (a percentage degradation value of less than 25% and no less than 10%) | C (a percentage degradation value of less than 25% and no less than 10%) | 88 nM |
| CC1(Cc2ccc(OCCCCN3CCN(C(=O)COc4ccc5c(c4)CN(C4CCC(=O)NC4=O)C5=O)CC3)cc2)C(c2ccc(O)cc2)=Nc2ccc(O)cc21 (stereo not shown) [Compound D3, 3-(5-(2-(4-(4-(4-((5-Hydroxy-2-(4-hydroxyphenyl)-3-methyl-3H-indol-3-yl)-methyl)phenoxy)butyl)piperazin-1-yl)-2-oxoethoxy)-1-oxoisoindolin-2-yl)piperidine-2,6-dione] | D (a percentage degradation value of less than 10%) | D (a percentage degradation value of less than 10%) | D (a percentage degradation value of less than 10%) | 569 nM |
| Cn1nc(C2CCC(=O)NC2=O)c2ccc(OCC(=O)N3CCN(CCCCOc4ccc(CC5(C)C(c6ccc(O)cc6)=Nc6ccc(O)cc65)cc4)CC3)cc21 (stereo not shown) [Compound D5, 3-(6-(2-(4-(4-(4-((5-Hydroxy-2-(4-hydroxyphenyl)-3-methyl-3H-indol-3-yl)-methyl)phenoxy)butyl)piperazin-1-yl)-2-oxoethoxy)-1-methyl-1H-indazol-3-yl)piperidine-2,6-dione] | C (a percentage degradation value of less than 25% and no less than 10%) | D (a percentage degradation value of less than 10%) | C (a percentage degradation value of less than 25% and no less than 10%) | 136 nM |

— US20240368121A1, “ESTROGEN RECEPTOR DEGRADERS, PHARMACEUTICAL COMPOSITIONS THEREOF, AND THEIR THERAPEUTIC APPLICATIONS” (BioTheryX, Inc., priority 2021, published 2024)
